Measurements published in article doi:10.1101/2025.01.24.634724, “Receptor Activity-Modifying Protein 3 enhances GLP-1-mediated Insulin Secretion” (bioRxiv, 2025).
“And” between values parts separate entries of the source, which are not always exact repeats. Equal values may be shown once. “Also recorded” adds a separate entry of the source. Numbered stars: 1 amine (or outer) side, 2 acyl side, 3 side chain; on linkers, the order of the positions; unused ones are H or OH. Bridge positions count the residues as written; N and C are the ends. Square brackets hold non-standard residues; d marks the D form. Peptide text beside a SMILES is read from it. X1 = CC(=O)NC(C(=O)OC(C(C)C)C(N[*:1])C(=O)[*:2])C(O)C(C)C; PhLac = O=C(O)[CH](O)Cc1ccccc1; NMeT = CN[CH](C(=O)O)[CH](C)O; NMeA = CN[CH](C)C(=O)O; NMeDha = C=C(NC)C(=O)O

What was measured:
CLR-RAMP1 = settings: cited from earlier work
Source text: As RAMP3 expression varies between tissues, it is possible that by directly targeting this complex, tissue specific receptor activation could be facilitated. […] Agonists which have reduced affinity for the RAMP3 complex over receptor alone ...

INS-1 832/3 cells = assay: Insulin secretion (GSIS), INS-1 832/3; format: cell-based, rat; settings: for effect of inhibitor on GLP-1-mediated insulin secretion: 10nM GLP-1, vector or RAMP3, 30 min inhibitor pre-treatment (YM-254890 100nM, PTX 0.2ng/μL), n>4
Description: (§1) Insulin content was measured with the insulin ultra-sensitive detection kit (Cisbio).

[1] = system: LgBiT-GLP-1R with SmBiT-RAMP1 or -RAMP2; assay: NanoBiT/BRET fluorescent ligand binding with SmBiT-RAMP1 or -RAMP2; settings: SmBiT-RAMP1 or -RAMP2, HEK293T
Min6 B1 cells = assay: Insulin secretion, siRNA treated Min6 B1; format: cell-based, mouse; settings: 10nM or 1nM peptide with 10mM glucose; Min6 B1, n=4
Description: as §1

[2] = system: wildtype SvEv129/SJ and isogenic Ramp3−/− male mice; assay: IPGTT plasma insulin, WT and Ramp3−/− mice; format: in vivo, mouse; settings: GLP-1 50nmol/kg subQ, 15 min after glucose 2g/kg i.p., n=5
Source text: (§2) Ramp3^−/− mice and genotyping have been previously described ([34]).

[3] = system: wildtype SvEv129/SJ and isogenic Ramp3−/− male mice; assay: Insulin tolerance test (ITT), blood glucose, WT and Ramp3−/− mice; format: in vivo, mouse; settings: GLP-1 50nmol/kg subQ 15 min before insulin 1IU/kg i.p., n=5
Source text: as §2

GCGR with RAMP2 = settings: RAMP2 co-expression ref 13; cited from earlier work
Source text: Signalling bias can also be influenced by the tissue, due to differential expression of signalling proteins, as well as allosteric modulators. A common protein allosteric modulator of Class B1 GPCRs are the receptor activity-modifying proteins (RAMPs). First discovered for the calcitonin-like receptor, with which they form obligate heterodimers, RAMPs influence the expression, affinity, and signalling bias of the receptor. For the calcitonin family, this leads to receptors considered functionally distinct ([10], [11]), although smaller effects are observed on other receptors e.g. the vasoactiv ...

[4] = system: Ramp1/Ramp3 knockout mice; settings: mouse models; dual Ramp1/Ramp3 deletion ref 43 (Leuthardt et al.); cited from earlier work
Source text: It is possible this difference is due to lower receptor expression, or a differential effect on bias for the rodent receptors than the human. Species differences in signalling bias have been observed for other GPCRs associated with islet cell pharmacology ([41]), so it stands to reason this might be influencing the differences o ...

Nluc-GLP-1R [5] = assay: cAMP accumulation, HEK293T; format: cell-based
Nluc-GLP-1R [6] = assay: (Ca2+)i mobilisation, HEK293T; format: cell-based
Description: HEK293T cells were transfected with 100ng Nluc-GLP-1R and 200ng of pcDNA3.1 or FLAG-RAMP3, or 100ng of pcDNA3.1 and FLAG- RAMP3 per 100μl cells and seeded in a 0.01% PLL-coated black-walled clear-bottom 96-well plate. 48 hours later media was removed, and cells were incubated in 10μM Fluor4-AM dye containing 2.5mM probenecid for 1 hour at room temperature. Cells were washed and dye replaced with Hank’s Balanced Salt Solution (Lonza) without Ca^2+ containing 0.1% BSA w/v. […] The response to vehicle was taken to be 0%, and the response to 10 μM ionomycin was used as 100%. For HEK293T cells, the maximal fluorescence was used for further analysis.

GLP-1R / Gαs = assay: TRUPATH G protein dissociation, Gαs; format: cell-based; settings: HEK293T
Description: (§3) G Protein dissociation assays were performed using the TRUPATH biosensor platform, as described ([28]). HEK293T cells were transfected with GLP-1R, Gα, Gγ, Gβ, and pcDNA3.1 or FLAG-RAMP3 all in equal quantities and incubated overnight. […] Cells were washed with KREBs with 0.1% BSA and incubated in buffer containing 5μM coelenterazine 400a for 5 minutes. Ligands were then added, and plates read using the Pherastar microplate reader using the BRET2 module, at 60-second intervals. The BRET2 ratio was calculated (λ515/λ400) and total dissociation over a 30-minute period used to generate dose response curves.

GLP-1R-Nluc [7] = assay: Receptor internalisation (loss of BRET with RIT-Venus), HEK293T; format: cell-based; settings: for effect of RAMP3 on internalisation: RAMP3 overexpression
Description: Experiments were performed as previously described (([47])).

GLP-1R / Gαq(R183Q) = assay: TRUPATH G protein dissociation, Gαq(R183Q); settings: HEK293T, R183Q mutant
Description: as §3

GLP-1R-Nluc [8] = assay: β-arrestin recruitment, HEK293T; format: cell-based; settings: stated in discussion
[9] = relative to GLP-1 at GLP-1R alone

**Q.** For `NCCCC[C@H](NC(=O)[C@@H](Cc1cc(Br)c(O)c(Br)c1)NC(=O)N1CCC(N2Cc3ccccc3NC2=O)CC1)C(=O)N1CCN(c2ccncc2)CC1` [BIBN 4096 BS], which “activity at CLR-RAMP1” value (CLR-RAMP1) is on record?
**A.** Its value is “CLR-RAMP1 antagonist”.

**Q.** What does the source list for `CC(C)(C)c1cc(C(=O)/C(C#N)=N/Nc2cccc(Cl)c2)no1` [ESI-09]?
**A.** effect of inhibitor on GLP-1-mediated insulin secretion (INS-1 832/3 cells): significantly decreased GLP-1 mediated potentiation of GSIS in both vector and RAMP3 transfected cells; effect on insulin secretion with […] glucose alone (INS-1 832/3 cells; 10μM ESI-09, no GLP-1, n=6): a reduction was also observed on the response to 16.7mM glucose alone; also recorded: a non-significant reduction was also observed in cells stimulated with high glucose alone

**Q.** For `Nc1ncnc2c1nc(Br)n2C1OC2COP(O)(=S)OC2C1O` (stereo not shown) [Rp-8-Br-cAMPs], which “effect of inhibitor on GLP-1-mediated insulin secretion” value (“effect of inhibitor” below) (INS-1 832/3 cells) is on record?
**A.** The value was “no effect on insulin secretion, irrespective of the expression of RAMP3”.

**Q.** Which “effect of inhibitor” value (INS-1 832/3 cells) does the source give for `C=C1C(=O)NC(C)C(=O)N(C)C(C)C(=O)NC(C(OC(=O)C(NC(C)=O)C(O)C(C)C)C(C)C)C(=O)N(C)C(C(C)OC)C(=O)OC(C)C(NC(C)=O)C(=O)OC(Cc2ccccc2)C(=O)N1C` (stereo not shown) [YM-254890] (Ac-T[PhLac][NMeDha]A[NMeA][X1][NMeT](Me); ester 1-C; configuration not given here) here?
**A.** Its value is “the effect of YM-254890 was greater than PTX”.

**Q.** With “Ex-4-Red: Tag-Lite GLP-1 receptor red ligand, based on exendin-4 (Cisbio)” as the molecule, how does the “binding of Ex-4-Red” value [1] read?
**A.** The value was “not observed for SmBiT-RAMP1 or -RAMP2”.

**Q.** What does the source list for GLP-1 (7–36amide)?
**A.** insulin secretion (INS-1 832/3 cells): 2.36±0.30 fold over 2.8mM glucose and 3.94±0.33 fold over 2.8mM glucose; effect of RAMP3 knockdown on insulin secretion (Min6 B1 cells): attenuated, although the effect was small; plasma insulin, IPGTT ([2]; Ramp3−/− mice): This response was lost in Ramp3^−/− mice; also recorded: no longer able to elevate insulin secretion above vehicle-treated animals; plasma insulin, IPGTT ([2]; WT mice): increased insulin secretion 15 minutes after administration of glucose; blood glucose, ITT ([3]; Ramp3−/− mice): lost in Ramp3^−/− mice (Figure 7H); blood glucose, ITT ([3]; WT mice): potentiated the effects of insulin on blood glucose; effect of RAMP2 on Gαs coupling at GCGR (GCGR with RAMP2): decreasing the response; effect of Ramp knockout on bodyweight lowering [4]: increase the effect of GLP-1 on bodyweight lowering in mouse models

**Q.** For GLP-1 (9–36amide) [GLP-1 9–36], which cAMP production (Nluc-GLP-1R [5]; 8-minute stimulation, concentration range tested) is on record?
**A.** The cAMP production was “did not elicit sufficient cAMP production over the concentration range tested”.

**Q.** And the “(Ca2+)i mobilisation” value (Nluc-GLP-1R [6]; in the absence of RAMP3)?
**A.** The value was “unable to elicit any (Ca^2+)i mobilisation in the absence of RAMP3”.

**Q.** Which “effect of RAMP3 on Gαs dissociation” value (GLP-1R / Gαs) does the source give for “exendin-4: incretin mimetic, approved for T2DM in 2005” here?
**A.** The value was “no effect”.

**Q.** What about the “effect of RAMP3 overexpression on cAMP potency and efficacy” value (Nluc-GLP-1R [5]; 8-minute stimulation) of the same molecule?
**A.** Its value is “reductions in both potency and efficacy observed when RAMP3 was overexpressed”.

**Q.** What about the “effect of RAMP3 on internalisation” value (GLP-1R-Nluc [7]) of the same molecule?
**A.** Its value is “no subsequent effect on internalisation”.

**Q.** And the “effect of RAMP3 on Gαq(Q) dissociation” value (GLP-1R / Gαq(R183Q))?
**A.** Its value is “no effect”.

**Q.** With “glucagon: agonist of the glucagon receptor (GCGR)” as the molecule, how does the “effect of RAMP2 on Gαs coupling at GCGR” value (GCGR with RAMP2) read?
**A.** Its value is “increasing Gαs coupling at GCGR”.

**Q.** Which “effect of RAMP1 and RAMP3 on insulin secretion” value (INS-1 832/3 cells) does the source give for “glucose-dependent insulinotropic polypeptide [GIP]” here?
**A.** Its value is “both RAMP1 and 3 increased insulin secretion”.

**Q.** And the “effect of RAMP3 knockdown on insulin secretion” value (Min6 B1 cells)?
**A.** The value was “unaffected by RAMP3 knockdown”.

**Q.** Which “effect of RAMP3 on Gαs dissociation” value (GLP-1R / Gαs) does the source give for “liraglutide: a synthetic, lipidated GLP-1 mimetic, approved in the treatment of T2DM” here?
**A.** Its value is “no effect”.

**Q.** And the “effect of RAMP3 overexpression on cAMP potency and efficacy” value (Nluc-GLP-1R [5]; 8-minute stimulation)?
**A.** Its value is “reductions in both potency and efficacy observed when RAMP3 was overexpressed”.

**Q.** What about the “effect of RAMP3 on LogRA, cAMP accumulation / second messenger” value (Nluc-GLP-1R [5]; [9]) of the same molecule?
**A.** Its value is “lesser effects on second messenger signalling”.

**Q.** What about the “effect of RAMP3 on (Ca2+)i mobilisation” value (Nluc-GLP-1R [6]) of the same molecule?
**A.** The value was “no significant effects”.

**Q.** And the inherent signalling bias (GLP-1R-Nluc [8])?
**A.** The inherent signalling bias was “bias towards β-arrestin recruitment”.

**Q.** What about the “effect of RAMP3 on internalisation” value (GLP-1R-Nluc [7]) of the same molecule?
**A.** The value was “significant decrease in the potency of internalisation; also recorded: the response to liraglutide was reduced”.

**Q.** What about the “effect of RAMP3 on LogRA, desensitisation / internalisation” value (GLP-1R-Nluc [7]; [9]) of the same molecule?
**A.** The value was “greater reduction in internalisation”.

**Q.** What about the “effect of RAMP2 on Gαs coupling at GCGR” value (GCGR with RAMP2) of the same molecule?
**A.** Its value is “decreasing the response”.

**Q.** And the “effect of RAMP3 on Gαq(Q) dissociation” value (GLP-1R / Gαq(R183Q))?
**A.** The value was “no effect”.

**Q.** Which results are given for “oxyntomodulin: an endogenous dual agonist of both GCGR and GLP-1R”?
**A.** effect of RAMP3 overexpression on cAMP potency and efficacy (Nluc-GLP-1R [5]; 8-minute stimulation): reductions in both potency and efficacy observed when RAMP3 was overexpressed; effect of RAMP3 on internalisation (GLP-1R-Nluc [7]): no subsequent effect on internalisation; effect of RAMP2 on Gαs coupling at GCGR (GCGR with RAMP2): increasing Gαs coupling at GCGR; effect of RAMP3 on Gαq(Q) dissociation (GLP-1R / Gαq(R183Q)): no effect

**Q.** For pertussis toxin [PTX], which “effect of inhibitor” value (INS-1 832/3 cells) is on record?
**A.** The value was “decreased insulin secretion significantly only when RAMP3 was overexpressed”.
